Patent US7300946B2, “N-(substituted arylmethyl)-4-(disubstituted methyl) piperidines and pyridines” (Bayer CropScience AG, priority 2002, dated 2007)

System: tobacco budworm (Heliothis virescens [Fabricius])
Test: surface-treated diet test against the tobacco budworm
Type: in vivo
Conditions: tobacco budworm second instar larvae, surface-treated diet, 0.25 millimoles of candidate insecticide on the surface of the diet, five-day exposure; for Percent Mortality: compared to total number of insects infested; for Percent Growth Inhibition: inhibition of insect weight relative to untreated controls
Procedure: Candidate insecticides were evaluated for activity against the tobacco budworm (Heliothis virescens [Fabricius]) in a surface-treated diet test.
In this test one mL of molten (65–70° C.) wheat germ-based artificial diet was pipetted into each well of a four by six (24 well) multi-well plate (ID# 430345-15.5 mm dia.×17.6 mm deep; Corning Costar Corp., One Alewife Center, Cambridge, Mass. 02140). The diet was allowed to cool to ambient temperature before treatment with candidate insecticide.
For a determination of insecticidal activity, solutions of the candidate insecticides were prepared for testing using a Packard 204DT Multiprobe® Robotic System (Packard Instrument Company, 800 Research Parkway, Meriden, Conn. 06450), in which the robot first diluted a standard 50 millimolar DMSO solution of candidate insecticide with a 1:1 water/acetone solution (V/V) in a ratio of 1:7 stock solution to water/acetone. The robot subsequently pipetted 40 microliters of the so-prepared solution onto the surface of the diet in each of three wells in the 24 multi-well plate. The process was repeated with solutions of seven other candidate insecticides. Once treated, the contents of the multi-well plate were allowed to dry, leaving 0.25 millimoles of candidate insecticide on the surface of the diet, or a concentration of 0.25 millimolar. Appropriate untreated controls containing only DMSO on the diet surface were also included in this test. […]
In each well of the test plate was placed one second instar tobacco budworm larvea, each weighing approximately five milligrams. After the larvae were placed in each well, the plate was sealed with clear polyfilm adhesive tape. The tape over each well was perforated to ensure an adequate air supply. The plates were then held in a growth chamber at 25° C. and 60% relative humidity for five days (light 14 hours/day).
After the five-day exposure period insecticidal activity for each rate of application of candidate insecticide was assessed as percent inhibition of insect weight relative to the weight of insects from untreated controls, and percent mortality when compared to the total number of insects infested.
The test compounds of formula I are identified by numbers that correspond to those in Table 1.
These tests were conducted with 0.25 millimoles of candidate insecticide on the surface of the diet.

FC(F)(F)c1ccc(C(=C2CCN(Cc3ccccc3)CC2)c2ccccc2)cc1 [Compound 30]
Percent Mortality: 100%
Percent Growth Inhibition: 54%

Fc1ccc(C(=C2CCN(Cc3ccccc3)CC2)c2ccc(C(F)(F)F)cc2)cc1 [Compound 31]
Percent Mortality: 17%
Percent Growth Inhibition: 99%

COc1ccc(CN2CCC(=C(c3ccc(OC(F)(F)F)cc3)c3ccc(OC(F)(F)F)cc3)CC2)cc1 [Compound 42]
Percent Mortality: 100%
Percent Growth Inhibition: 100%

CCCOc1ccc(CN2CCC(=C(c3ccc(O)cc3)c3ccc(O)cc3)CC2)cc1 [Compound 44]
Percent Mortality: 67%
Percent Growth Inhibition: 100%

CCCOc1ccc(CN2CCC(=C(c3cccc(C(F)(F)F)c3)c3cccc(C(F)(F)F)c3)CC2)cc1 [Compound 45]
Percent Mortality: 0%
Percent Growth Inhibition: 24%

CCCOc1ccc(CN2CCC(=C(c3cccc(OC(F)(F)F)c3)c3cccc(OC(F)(F)F)c3)CC2)cc1 [Compound 47]
Percent Mortality: 0%
Percent Growth Inhibition: 11%

CCCOc1ccc(CN2CCC(=C(c3ccc(OC(F)(F)F)cc3)c3ccc(OC(F)(F)F)cc3)CC2)cc1 [Compound 48]
Percent Mortality: 100%
Percent Growth Inhibition: 100%

CCOC(=O)c1ccc(CN2CCC(=C(c3ccc(C(F)(F)F)cc3)c3ccc(C(F)(F)F)cc3)CC2)cc1 [Compound 50]
Percent Mortality: 67%
Percent Growth Inhibition: 96%

CC(C)OC(=O)c1ccc(CN2CCC(=C(c3ccc(C(F)(F)F)cc3)c3ccc(C(F)(F)F)cc3)CC2)cc1 [Compound 51]
Percent Mortality: 0%
Percent Growth Inhibition: 26%

CC(=O)Nc1ccc(CN2CCC(=C(c3ccc(C(F)(F)F)cc3)c3ccc(C(F)(F)F)cc3)CC2)cc1 [Compound 52]
Percent Mortality: 33%
Percent Growth Inhibition: 100%

O=C(Nc1ccc(CN2CCC(=C(c3ccc(C(F)(F)F)cc3)c3ccc(C(F)(F)F)cc3)CC2)cc1)C(F)(F)F [Compound 53]
Percent Mortality: 0%
Percent Growth Inhibition: 100%

COC(=O)Nc1ccc(CN2CCC(=C(c3ccc(C(F)(F)F)cc3)c3ccc(C(F)(F)F)cc3)CC2)cc1 [Compound 54]
Percent Mortality: 100%
Percent Growth Inhibition: 100%

CCOC(=O)Nc1ccc(CN2CCC(=C(c3ccc(C(F)(F)F)cc3)c3ccc(C(F)(F)F)cc3)CC2)cc1 [Compound 55, N-{4-[(4-{bis[4-(trifluoromethyl)phenyl]methylene}piperidyl)methyl]phenyl}ethoxycarboxamide]
Percent Mortality: 100%
Percent Growth Inhibition: 100%

CCOC(=O)N(C)c1ccc(CN2CCC(=C(c3ccc(C(F)(F)F)cc3)c3ccc(C(F)(F)F)cc3)CC2)cc1 [Compound 56]
Percent Mortality: 100%
Percent Growth Inhibition: 100%

CCCOC(=O)Nc1ccc(CN2CCC(=C(c3ccc(C(F)(F)F)cc3)c3ccc(C(F)(F)F)cc3)CC2)cc1 [Compound 57]
Percent Mortality: 100%
Percent Growth Inhibition: 100%

CC(C)OC(=O)Nc1ccc(CN2CCC(=C(c3ccc(C(F)(F)F)cc3)c3ccc(C(F)(F)F)cc3)CC2)cc1 [Compound 58]
Percent Mortality: 100%
Percent Growth Inhibition: 100%

CC(C)COC(=O)Nc1ccc(CN2CCC(=C(c3ccc(C(F)(F)F)cc3)c3ccc(C(F)(F)F)cc3)CC2)cc1 [Compound 59]
Percent Mortality: 0%
Percent Growth Inhibition: 59%

CCON=Cc1ccc(CN2CCC(=C(c3ccc(C(F)(F)F)cc3)c3ccc(C(F)(F)F)cc3)CC2)cc1 [Compound 60]
Percent Mortality: 100%
Percent Growth Inhibition: 100%

FC(F)(F)c1ccc(C(=C2CCN(Cc3ccc(OCc4nccs4)cc3)CC2)c2ccc(C(F)(F)F)cc2)cc1 [Compound 61]
Percent Mortality: 100%
Percent Growth Inhibition: 100%

Cn1nnc(-c2ccc(CN3CCC(=C(c4ccc(Cl)cc4)c4ccc(C(F)(F)F)cc4)CC3)cc2)n1 [Compound 74]
Percent Mortality: 100%
Percent Growth Inhibition: 100%

Cn1nnc(-c2ccc(CN3CCC(=C(c4ccc(C(F)(F)F)cc4)c4ccc(C(F)(F)F)cc4)CC3)cc2)n1 [Compound 75]
Percent Mortality: 100%
Percent Growth Inhibition: 96%

CCn1nnc(-c2ccc(CN3CCC(=C(c4ccccc4)c4ccc(Cl)cc4)CC3)cc2)n1 [Compound 76]
Percent Mortality: 0%
Percent Growth Inhibition: 91%

CCn1nnc(-c2ccc(CN3CCC(=C(c4ccc(Cl)cc4)c4ccc(Cl)cc4)CC3)cc2)n1 [Compound 77]
Percent Mortality: 100%
Percent Growth Inhibition: 100%

CCn1nnc(-c2ccc(CN3CCC(=C(c4ccc(F)cc4)c4ccc(F)cc4)CC3)cc2)n1 [Compound 78]
Percent Mortality: 67%
Percent Growth Inhibition: 100%

CCn1nnc(-c2ccc(CN3CCC(=C(c4ccc(F)cc4)c4ccc(Cl)cc4)CC3)cc2)n1 [Compound 79]
Percent Mortality: 83%
Percent Growth Inhibition: 100%

CCn1nnc(-c2ccc(CN3CCC(=C(c4ccccc4)c4ccc(C(F)(F)F)cc4)CC3)cc2)n1 [Compound 80]
Percent Mortality: 33%
Percent Growth Inhibition: 100%

CCn1nnc(-c2ccc(CN3CCC(=C(c4ccc(F)cc4)c4ccc(C(F)(F)F)cc4)CC3)cc2)n1 [Compound 81]
Percent Mortality: 100%
Percent Growth Inhibition: 100%

CCn1nnc(-c2ccc(CN3CCC(=C(c4ccc(C(F)(F)F)cc4)c4ccc(C(F)(F)F)cc4)CC3)cc2)n1 [Compound 82]
Percent Mortality: 100%
Percent Growth Inhibition: 100%

CCn1nnc(-c2ccc(CN3CCC(=C(c4ccc5c(c4)OC(F)(F)O5)c4ccc5c(c4)OC(F)(F)O5)CC3)cc2)n1 [Compound 83]
Percent Mortality: 100%
Percent Growth Inhibition: 100%

O=C(CCN1CCC(=C(c2ccccc2)c2ccccc2)CC1)c1ccccc1 [Compound 85]
Percent Mortality: 100%
Percent Growth Inhibition: 100%

[O-][N+]1(Cc2ccc(OCC3CC3)cc2)CCC(=C(c2ccc(C(F)(F)F)cc2)c2ccc(C(F)(F)F)cc2)CC1 (stereo not drawn) [Compound 98]
Percent Mortality: 100%
Percent Growth Inhibition: 100%

CCOC(=O)c1ccc(C[N+]2([O-])CCC(=C(c3ccc(C(F)(F)F)cc3)c3ccc(C(F)(F)F)cc3)CC2)cc1 (stereo not drawn) [Compound 99]
Percent Mortality: 100%
Percent Growth Inhibition: 100%

CC(C)OC(=O)c1ccc(C[N+]2([O-])CCC(=C(c3ccc(C(F)(F)F)cc3)c3ccc(C(F)(F)F)cc3)CC2)cc1 (stereo not drawn) [Compound 100]
Percent Mortality: 100%
Percent Growth Inhibition: 100%

CCOC(=O)Nc1ccc(C[N+]2([O-])CCC(=C(c3ccc(C(F)(F)F)cc3)c3ccc(C(F)(F)F)cc3)CC2)cc1 (stereo not drawn) [Compound 101, N-{4-[(4-{bis[4-(trifluoromethyl)phenyl]methylene}piperidyl)methyl]phenyl}ethoxycarboxamide, N-oxide]
Percent Mortality: 100%
Percent Growth Inhibition: 100%

CCCOC(=O)Nc1ccc(C[N+]2([O-])CCC(=C(c3ccc(C(F)(F)F)cc3)c3ccc(C(F)(F)F)cc3)CC2)cc1 (stereo not drawn) [Compound 102]
Percent Mortality: 100%
Percent Growth Inhibition: 100%

CC(C)OC(=O)Nc1ccc(C[N+]2([O-])CCC(=C(c3ccc(C(F)(F)F)cc3)c3ccc(C(F)(F)F)cc3)CC2)cc1 (stereo not drawn) [Compound 103]
Percent Mortality: 100%
Percent Growth Inhibition: 100%
